This passage reports Ki results from patent US12398097B2, “WDR5-MYC inhibitors” (Vanderbilt University, priority 2019, dated 2025).

The Ki is the equilibrium dissociation constant of an inhibitor or competing ligand from its target. Lower therefore signals tighter binding.

This test addresses WDR5 (Homo sapiens, UniProt P61964). The experiment in a line: Competition-based fluorescence polarization anisotropy assay. Conditions: binding to WDR5; displacement of FITC-labeled small molecule probe (analogous to Example J2 or HCH-25) or peptide probe FITC-AHx-SEEEIDVVSV; pH 6.0; Ki converted from IC50. Summed up: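 Ki values derive from displacement of either a fluorescent small-molecule probe or a FITC-peptide probe from WDR5, monitored by fluorescence polarization. Assay run at pH 6.0 in 200 mM phosphate with 300 mM NaCl, 0.5 mM TCEP and 0.1% Chaps.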
`N#CC1(c2cc(NS(=O)(=O)c3cc(Br)cc(Cl)c3O)c(O)c(C(=O)O)c2)CCC1` [Example J206, 3-((S-Bromo-3-chloro-2-hydroxyphenyl)sulfonamido)-5-(1-cyanocyclobutyl)-2-hydroxybenzoic acid] had a Ki of 20 nM.

For `COc1cc(Cl)c(Br)cc1S(=O)(=O)Nc1cc(C2(C#N)CCC2)cc(C(=O)O)c1O` [Example J207, 3-((5-Bromo-4-chloro-2-methoxyphenyl)sulfonamido)-5-(1-cyanocyclobutyl)-2-hydroxybenzoic acid], the inhibition constant (Ki) is 220 nM.

As for `CNC(=O)c1cc(C2(C#N)CCC2)cc(NS(=O)(=O)c2cc(Br)ccc2O)c1O` [Example J208, 3-((5-Bromo-2-hydroxyphenyl)sulfonamido)-5-(1-cyanocyclobutyl)-2-hydroxy-N-methylbenzamide], the affinity, expressed as Ki, was 390 nM.

`CNC(=O)c1cc(C2(C#N)CCC2)cc(NS(=O)(=O)c2cc(Br)ccc2OC)c1O` [Example J210, 3-((5-Bromo-2-methoxyphenyl)sulfonamido)-5-(1-cyanocyclobutyl)-2-hydroxy-N-methylbenzamide] came in with a Ki of 390 nM.

As to `CNC(=O)c1cc(C2(C#N)CCC2)cc(NS(=O)(=O)c2cc(Br)cc(Cl)c2O)c1O` [Example J211, 3-((5-Bromo-3-chloro-2-hydroxyphenyl)sulfonamido)-5-(1-cyanocyclobutyl)-2-hydroxy-N-methylbenzamide], the affinity corresponds to a Ki of 50 nM.

`CNC(=O)c1cc(C2(C#N)CCC2)cc(NS(=O)(=O)c2cc(Br)cc(C)c2O)c1O` [Example J212, 3-((5-Bromo-2-hydroxy-3-methylphenyl)sulfonamido)-5-(1-cyanocyclobutyl)-2-hydroxy-N-methylbenzamide] returned a Ki of 260 nM.

On to `CCc1cc(Br)cc(S(=O)(=O)Nc2cc(C3(C#N)CCC3)cc(C(=O)NC)c2O)c1O` [Example J213, 3-((5-Bromo-3-ethyl-2-hydroxyphenyl)sulfonamido)-5-(1-cyanocyclobutyl)-2-hydroxy-N-methylbenzamide], for which the inhibition constant Ki amounted to 12200 nM. Compared with the last compound, the Ki is about 47-fold higher.

With `CNC(=O)c1cc(C2(C#N)CCC2)cc(NS(=O)(=O)c2cc(Br)cc(OC(F)(F)F)c2O)c1O` [Example J214, 3-((5-Bromo-2-hydroxy-3-(trifluoromethoxy)phenyl)sulfonamido)-5-(1-cyanocyclobutyl)-2-hydroxy-N-methylbenzamide], the Ki came out at 390 nM.

The compound `CNC(=O)c1cc(C2(C#N)CCC2)cc(NS(=O)(=O)c2cc(Cl)cc(Cl)c2O)c1O` [Example J216, 5-(1-Cyanocyclobutyl)-3-((3,5-dichloro-2-hydroxyphenyl)sulfonamido)-2-hydroxy-N-methylbenzamide] had a Ki of 170 nM. This Ki is about 2.3-fold lower than that of the compound before.

In turn, `CNC(=O)c1cc(C2(C#N)CCC2)cc(NS(=O)(=O)c2cc(Br)cc3cccnc23)c1O` [Example J217, 3-((6-Bromoquinoline)-8-sulfonamido)-5-(1-cyanocyclobutyl)-2-hydroxy-N-methylbenzamide] had a Ki of 420 nM.

With `N#CC1(c2cc(NS(=O)(=O)c3cc(Br)ccc3O)c(O)c(C(N)=O)c2)CCC1` [Example J218, 3-((5-Bromo-2-hydroxyphenyl)sulfonamido)-5-(1-cyanocyclobutyl)-2-hydroxybenzamide], the Ki worked out at 1500 nM.

`COCCNC(=O)c1cc(C2(C#N)CCC2)cc(NS(=O)(=O)c2cc(Br)ccc2O)c1O` [Example J219, 3-((5-Bromo-2-hydroxyphenyl)sulfonamido)-5-(1-cyanocyclobutyl)-2-hydroxy-N-(2-methoxyethyl)benzamide] had an inhibitory constant (Ki) of 440 nM.

In turn, `N#CC1(c2cc(NS(=O)(=O)c3cc(Br)ccc3O)c(O)c(C(=O)NCC3CCCO3)c2)CCC1` (stereo not drawn) [Example J220, 3-((5-Bromo-2-hydroxyphenyl)sulfonamido)-5-(1-cyanocyclobutyl)-2-hydroxy-N-((tetrahydrofuran-2-yl)methyl)benzamide] registered an inhibition constant (Ki) of 1030 nM.

Regarding `COC1CCN(C(=O)c2cc(C3(C#N)CCC3)cc(NS(=O)(=O)c3cc(Br)ccc3O)c2O)C1` (stereo not drawn) [Example J221, 5-Bromo-N-(5-(1-cyanocyclobutyl)-2-hydroxy-3-(3-methoxypyrrolidine-1-carbonyl)phenyl)-2-hydroxybenzenesulfonamide], the Ki came to 27800 nM.

Consider `N#CC1(c2cc(NS(=O)(=O)c3cc(Br)ccc3O)c(O)c(C(=O)NCc3cc[nH]c(=O)c3)c2)CCC1` [Example J222, 3-((5-Bromo-2-hydroxyphenyl)sulfonamido)-5-(1-cyanocyclobutyl)-2-hydroxy-N-((2-oxo-1,2-dihydropyridin-4-yl)methyl)benzamide], for which the Ki worked out at 410 nM.

In turn, `COC1CN(C(=O)c2cc(C3(C#N)CCC3)cc(NS(=O)(=O)c3cc(Br)ccc3O)c2O)C1` [Example J223, 5-Bromo-N-(5-(1-cyanocyclobutyl)-2-hydroxy-3-(3-methoxyazetidine-1-carbonyl)phenyl)-2-hydroxybenzenesulfonamide] returned an inhibition constant (Ki) of 430 nM.

`N#CC1(c2cc(NS(=O)(=O)c3cc(Br)ccc3O)c(O)c(C(=O)N3CC(O)C3)c2)CCC1` [Example J224, 5-Bromo-N-(5-(1-cyanocyclobutyl)-2-hydroxy-3-(3-hydroxyazetidine-1-carbonyl)phenyl)-2-hydroxybenzenesulfonamide] registered a Ki of 290 nM. This Ki and that of the compound before are within 1.5-fold of each other.

As for `N#CC1(c2cc(NS(=O)(=O)c3cc(Br)ccc3O)c(O)c(C(=O)NCCN3CCOCC3)c2)CCC1` [Example J225, 3-((5-Bromo-2-hydroxyphenyl)sulfonamido)-5-(1-cyanocyclobutyl)-2-hydroxy-N-(2-morpholinoethyl)benzamide], the Ki turned out to be 860 nM.

The compound `CN(C)CCNC(=O)c1cc(C2(C#N)CCC2)cc(NS(=O)(=O)c2cc(Br)ccc2O)c1O` [Example J226, 3-((5-Bromo-2-hydroxyphenyl)sulfonamido)-5-(1-cyanocyclobutyl)-N-(2-(dimethylamino)ethyl)-2-hydroxybenzamide] registered a Ki of 1090 nM.

`N#CC1(c2cc(NS(=O)(=O)c3cc(Br)ccc3O)c(O)c(C(=O)Nc3nc[nH]n3)c2)CCC1` [Example J227, 3-((5-Bromo-2-hydroxyphenyl)sulfonamido)-5-(1-cyanocyclobutyl)-2-hydroxy-N-(1H-1,2,4-triazol-3-yl)benzamide] gave a Ki of 50 nM.

As to `N#CC1(c2cc(NS(=O)(=O)c3cc(Br)ccc3O)c(O)c(C(=O)NCCO)c2)CCC1` [Example J228, 3-((5-Bromo-2-hydroxyphenyl)sulfonamido)-5-(1-cyanocyclobutyl)-2-hydroxy-N-(2-hydroxyethyl)benzamide], affinity was put at a Ki of 370 nM.

Consider `N#CC1(c2cc(NS(=O)(=O)c3cc(Br)ccc3O)c(O)c(C(=O)NCC3CCCCO3)c2)CCC1` (stereo not drawn) [Example J229, 3-((5-Bromo-2-hydroxyphenyl)sulfonamido)-5-(1-cyanocyclobutyl)-2-hydroxy-N-((tetrahydro-2H-pyran-2-yl)methyl)benzamide], for which affinity was put at a Ki of 850 nM. This Ki lies about 2.3-fold higher than the previous one.

The compound `N#CC1(c2cc(NS(=O)(=O)c3cc(Br)ccc3O)c(O)c(C(=O)NCc3ccc(=O)[nH]c3)c2)CCC1` [Example J230, 3-((5-Bromo-2-hydroxyphenyl)sulfonamido)-5-(1-cyanocyclobutyl)-2-hydroxy-N-((6-oxo-1,6-dihydropyridin-3-yl)methyl)benzamide] displayed a Ki of 630 nM.

Turning to `N#CC1(c2cc(NS(=O)(=O)c3cc(Br)ccc3O)c(O)c(C(=O)O)c2)CCCCC1` [Example J231, 3-((5-Bromo-2-hydroxyphenyl)sulfonamido)-5-(1-cyanocyclohexyl)-2-hydroxybenzoic acid], the affinity, expressed as Ki, was 20 nM. Against the preceding compound, the Ki is about 32-fold lower.

`N#CC1(c2cc(NS(=O)(=O)c3cc(Br)ccc3O)c(O)c(C(N)=O)c2)CCCCC1` [Example J232, 3-((5-Bromo-2-hydroxyphenyl)sulfonamido)-5-(l-cyanocyclohexyl)-2-hydroxybenzamide] yielded an inhibitory constant (Ki) of 220 nM.

As to `CNC(=O)c1cc(C2(C#N)CCCCC2)cc(NS(=O)(=O)c2cc(Br)ccc2O)c1O` [Example J233, 3-((5-Bromo-2-hydroxyphenyl)sulfonamido)-5-(1-cyanocyclohexyl)-2-hydroxy-N-methylbenzamide], the Ki worked out at 100 nM. Compared with the last compound, the Ki is about 2.2-fold lower.

For `N#CC1(c2cc(NS(=O)(=O)c3cc(Br)cc(Cl)c3O)c(O)c(C(=O)O)c2)CCCCC1` [Example J234, 3-((5-Bromo-3-chloro-2-hydroxyphenyl)sulfonamido)-5-(1-cyanocyclohexyl)-2-hydroxybenzoic acid], affinity was put at a Ki of 20 nM.

On to `N#CC1(c2cc(NS(=O)(=O)c3cc(Br)cc(Cl)c3O)c(O)c(C(N)=O)c2)CCCCC1` [Example J235, 3-((5-Bromo-3-chloro-2-hydroxyphenyl)sulfonamido)-5-(1-cyanocyclohexyl)-2-hydroxybenzamide], for which the Ki turned out to be 80 nM.

As to `CNC(=O)c1cc(C2(C#N)CCCCC2)cc(NS(=O)(=O)c2cc(Br)cc(Cl)c2O)c1O` [Example J236, 3-((5-Bromo-3-chloro-2-hydroxyphenyl)sulfonamido)-5-(1-cyanocyclohexyl)-2-hydroxy-N-methylbenzamide], the affinity, expressed as Ki, was 240 nM. Against the preceding compound, the Ki is about 3-fold higher.

For `CS(=O)(=O)c1cc(Br)cc(NS(=O)(=O)c2cc(Br)cc(OC(F)(F)F)c2O)c1` [Example S3, 5-Bromo-N-(3-bromo-5-(methylsulfonyl)phenyl)-2-hydroxy-3-(trifluoromethoxy)benzenesulfonamide], the affinity corresponds to a Ki of 500 nM. This Ki is about 2.1-fold higher than that of the compound before.

For `CS(=O)(=O)c1cc(Cl)cc(NS(=O)(=O)c2cc(Br)cc(OC(F)(F)F)c2O)c1` [Example S4, 5-Bromo-N-(3-chloro-5-(methylsulfonyl)phenyl)-2-hydroxy-3-(trifluoromethoxy)benzenesulfonamide], the Ki stood at 850 nM.

Consider `CCc1cc(Br)cc(S(=O)(=O)Nc2cc(Cl)cc(S(C)(=O)=O)c2)c1O` [Example S5, 5-Bromo-N-(3-chloro-5-(methylsulfonyl)phenyl)-3-ethyl-2-hydroxybenzenesulfonamide], for which the Ki was determined as 610 nM.

For `CS(=O)(=O)c1cc(Cl)cc(NS(=O)(=O)c2cc(Br)ccc2O)c1` [Example S6, 5-Bromo-N-(3-chloro-5-(methylsulfonyl)phenyl)-2-hydroxybenzenesulfonamide], the inhibitory constant (Ki) was 1230 nM. Against the preceding compound, the Ki is about 2-fold higher.
